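Dose response: 5 concentrations. Exposure: 48 h. Format: 96-well plates. Endpoint: linear interpolation; highest concentration if not reached. GI50 is the concentration that inhibits growth by half.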 Calls of active or inactive are those of the source. Rule as the data show it: active = GI50 up to about 1.1 µM and inactive = higher.
What was measured:
Test in all cases: NCI anticancer screen, dose series, 48 h
[1] = system: OVCAR-4
[2] = system: Hs-578T
[3] = system: HOP-62
[4] = system: HCT-15
[5] = system: TK-10
[6] = system: A498
[7] = system: K562
[8] = system: NCI-H226
[9] = system: MCF7
[10] = system: CCRF-CEM
[11] = system: EKVX
[12] = system: IGROV-1
[13] = system: SF-539
[14] = system: U-251
[15] = system: OVCAR-8
[16] = system: OVCAR-5
[17] = system: M14
[18] = system: MOLT-4
[19] = system: NCI-H23
[20] = system: SK-OV-3

| Compound | GI50 [1] | GI50 [2] | GI50 [3] | GI50 [4] [µM] | GI50 [5] | GI50 [6] | GI50 [7] | GI50 [8] | GI50 [9] | GI50 [10] | GI50 [11] | GI50 [12] | GI50 [13] | GI50 [14] | GI50 [15] | GI50 [16] | GI50 [17] | GI50 [18] | GI50 [19] | GI50 [20] |
| --- | --- | --- | --- | --- | --- | --- | --- | --- | --- | --- | --- | --- | --- | --- | --- | --- | --- | --- | --- | --- |
| COc1ccc(-c2nc3c(C(=O)NCCN(C)C)cccc3c3ccccc23)cc1 | 2.81 µM (inactive) | 5.3 µM (inactive) | 3.06 µM (inactive) | 2.92 | 7.67 µM (inactive) | 2.98 µM (inactive) | 2.06 µM (inactive) | 5.57 µM (inactive) | 2.46 µM (inactive) | 2.77 µM (inactive) | 6.78 µM (inactive) | 3.47 µM (inactive) | 2.21 µM (inactive) | 2.86 µM (inactive) | 4.4 µM (inactive) | 3.95 µM (inactive) | 1.98 µM (inactive) | 2.07 µM (inactive) | 6.07 µM (inactive) | – |
| COC(=O)c1sc(=S)sc1SCc1cccc(CSc2sc(=S)sc2C(=O)OC)c1 | > 100 µM (inactive) | 36.3 µM (inactive) | 16.1 µM (inactive) | > 100 | 29.4 µM (inactive) | 24.8 µM (inactive) | 79.8 µM (inactive) | – | > 100 µM (inactive) | > 100 µM (inactive) | 56 µM (inactive) | 60.7 µM (inactive) | 24.6 µM (inactive) | 25.3 µM (inactive) | > 100 µM (inactive) | > 100 µM (inactive) | 71.3 µM (inactive) | > 100 µM (inactive) | 27.9 µM (inactive) | 19.6 µM (inactive) |
| CSc1cc(Br)ccc1-n1c(C(=O)c2ccccc2)c(SC)n(-c2ccccc2)c1=O | > 100 µM (inactive) | > 100 µM (inactive) | > 100 µM (inactive) | 23 | > 100 µM (inactive) | – | 4.81 µM (inactive) | > 100 µM (inactive) | 63.1 µM (inactive) | – | > 100 µM (inactive) | > 100 µM (inactive) | > 100 µM (inactive) | > 100 µM (inactive) | > 100 µM (inactive) | > 100 µM (inactive) | 96.2 µM (inactive) | 5.28 µM (inactive) | 86.3 µM (inactive) | > 100 µM (inactive) |
| O=C1CC(CC(O)C(O)CO)CC(=O)N1 (stereo not given) | – | > 100 µM (inactive) | > 100 µM (inactive) | > 100 | > 100 µM (inactive) | > 100 µM (inactive) | > 100 µM (inactive) | > 100 µM (inactive) | > 100 µM (inactive) | > 100 µM (inactive) | > 100 µM (inactive) | > 100 µM (inactive) | > 100 µM (inactive) | > 100 µM (inactive) | > 100 µM (inactive) | – | > 100 µM (inactive) | > 100 µM (inactive) | > 100 µM (inactive) | – |
| c1ccc(P(CCP(c2ccccn2)c2ccccn2)c2ccccc2)cc1 | 50.7 µM (inactive) | 7.67 µM (inactive) | 0.0268 µM (active) | > 100 | 26.5 µM (inactive) | 12.8 µM (inactive) | 0.0783 µM (active) | 45.3 µM (inactive) | 0.0261 µM (active) | – | 0.689 µM (active) | < 0.01 µM (active) | 0.577 µM (active) | 0.0578 µM (active) | 0.108 µM (active) | > 75.9 µM (inactive) | 19.6 µM (inactive) | 80.2 µM (inactive) | < 0.01 µM (active) | 48.9 µM (inactive) |
| COCCOC(=O)C(C)=[N+]=[N-] | > 100 µM (inactive) | > 100 µM (inactive) | > 100 µM (inactive) | > 100 | > 100 µM (inactive) | > 100 µM (inactive) | > 100 µM (inactive) | > 100 µM (inactive) | > 100 µM (inactive) | – | > 100 µM (inactive) | > 100 µM (inactive) | – | > 100 µM (inactive) | > 100 µM (inactive) | > 100 µM (inactive) | – | – | > 100 µM (inactive) | – |
| COC(=O)[C@@H]1CS(=O)(=O)C(C(C)C)N1C(C)=O (stereo not given in full) | > 100 µM (inactive) | > 100 µM (inactive) | > 100 µM (inactive) | > 100 | > 100 µM (inactive) | > 100 µM (inactive) | > 100 µM (inactive) | > 100 µM (inactive) | > 100 µM (inactive) | – | > 100 µM (inactive) | > 100 µM (inactive) | > 100 µM (inactive) | > 100 µM (inactive) | > 100 µM (inactive) | > 100 µM (inactive) | > 100 µM (inactive) | – | > 100 µM (inactive) | > 100 µM (inactive) |
